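Tested at 5 concentrations; 48 h exposure; 96-well plates; endpoints linearly interpolated, else capped at highest concentration. The concentration for 50% growth inhibition is given as GI50.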 Calls of active or inactive are those of the source. No stated cut-off is given here; in the data, active = GI50 up to about 1.1 µM and inactive = higher.
Experiments:
Experiment in all cases: growth of human tumour cells (NCI), 48 h
MOLT-4 = system: MOLT-4
BT-549 = system: BT-549
U-251 = system: U-251
786-0 = system: 786-0
UACC-62 = system: UACC-62
HCT-15 = system: HCT-15
TK-10 = system: TK-10
SF-295 = system: SF-295
IGROV-1 = system: IGROV-1
MDA-MB-231 = system: MDA-MB-231
RPMI-8226 = system: RPMI-8226
SK-MEL-28 = system: SK-MEL-28
EKVX = system: EKVX
HL-60 = system: HL-60
CCRF-CEM = system: CCRF-CEM
HOP-62 = system: HOP-62
DU-145 = system: DU-145
SN12C = system: SN12C
MDA-MB-435 = system: MDA-MB-435
SK-OV-3 = system: SK-OV-3
SW-620 = system: SW-620
SK-MEL-2 = system: SK-MEL-2
SF-268 = system: SF-268
CAKI-1 = system: CAKI-1
KM12 = system: KM12
OVCAR-8 = system: OVCAR-8
HT-29 = system: HT-29
SK-MEL-5 = system: SK-MEL-5
OVCAR-4 = system: OVCAR-4
NCI-H522 = system: NCI-H522
NCI-H226 = system: NCI-H226
T47D = system: T47D
A498 = system: A498
ACHN = system: ACHN
COLO 205 = system: COLO 205
A549 = system: A549
K562 = system: K562
HCC 2998 = system: HCC 2998
RXF 393 = system: RXF 393
UACC-257 = system: UACC-257
UO-31 = system: UO-31
Malme-3M = system: Malme-3M
HCT-116 = system: HCT-116
M14 = system: M14
SNB-75 = system: SNB-75
Hs-578T = system: Hs-578T
NCI/ADR-RES = system: NCI/ADR-RES
SNB-19 = system: SNB-19
SF-539 = system: SF-539
MCF7 = system: MCF7
MDA-N = system: MDA-N
NCI-H460 = system: NCI-H460
HOP-92 = system: HOP-92
NCI-H23 = system: NCI-H23
LOX IMVI = system: LOX IMVI
SR = system: SR
OVCAR-5 = system: OVCAR-5
PC-3 = system: PC-3
OVCAR-3 = system: OVCAR-3

**Q.** For `CC(C)Oc1c(-c2c(OC(C)C)c(=O)c2=O)c(=O)c1=O`, which GI50 (MOLT-4) is on record?
**A.** > 36.6 µM (inactive)

**Q.** What about the GI50 (BT-549) of the same compound?
**A.** > 48 µM (inactive)

**Q.** And the GI50 (U-251)?
**A.** > 36.5 µM (inactive)

**Q.** And the GI50 (786-0)?
**A.** > 52.5 µM (inactive)

**Q.** And the GI50 (UACC-62)?
**A.** > 40 µM (inactive)

**Q.** And the GI50 (HCT-15)?
**A.** > 60.5 µM

**Q.** What about the GI50 (TK-10) of the same compound?
**A.** > 70.1 µM (inactive)

**Q.** And the GI50 (SF-295)?
**A.** > 65 µM (inactive)

**Q.** What about the GI50 (IGROV-1) of the same compound?
**A.** > 31.7 µM (inactive)

**Q.** What about the GI50 (MDA-MB-231) of the same compound?
**A.** > 36.7 µM (inactive)

**Q.** And the GI50 (RPMI-8226)?
**A.** 29.9 µM (inactive)

**Q.** And the GI50 (SK-MEL-28)?
**A.** > 68.2 µM (inactive)

**Q.** What about the GI50 (EKVX) of the same compound?
**A.** > 48.5 µM (inactive)

**Q.** And the GI50 (HL-60)?
**A.** 24.7 µM (inactive)

**Q.** What about the GI50 (CCRF-CEM) of the same compound?
**A.** > 52 µM (inactive)

**Q.** And the GI50 (HOP-62)?
**A.** > 36.1 µM (inactive)

**Q.** What about the GI50 (DU-145) of the same compound?
**A.** > 100 µM (inactive)

**Q.** And the GI50 (SN12C)?
**A.** > 49.2 µM (inactive)

**Q.** And the GI50 (MDA-MB-435)?
**A.** > 30.2 µM (inactive)

**Q.** What about the GI50 (SK-OV-3) of the same compound?
**A.** > 100 µM (inactive)

**Q.** What about the GI50 (SW-620) of the same compound?
**A.** > 34.9 µM (inactive)

**Q.** What about the GI50 (SK-MEL-2) of the same compound?
**A.** > 56.9 µM (inactive)

**Q.** What about the GI50 (SF-268) of the same compound?
**A.** > 47.3 µM (inactive)

**Q.** What about the GI50 (CAKI-1) of the same compound?
**A.** > 100 µM (inactive)

**Q.** What about the GI50 (KM12) of the same compound?
**A.** > 36.5 µM (inactive)

**Q.** And the GI50 (OVCAR-8)?
**A.** > 34.7 µM (inactive)

**Q.** What about the GI50 (HT-29) of the same compound?
**A.** > 23.1 µM (inactive)

**Q.** What about the GI50 (SK-MEL-5) of the same compound?
**A.** > 41.6 µM (inactive)

**Q.** What about the GI50 (OVCAR-4) of the same compound?
**A.** > 49.7 µM (inactive)

**Q.** What about the GI50 (NCI-H522) of the same compound?
**A.** > 20.1 µM (inactive)

**Q.** And the GI50 (NCI-H226)?
**A.** > 78.3 µM (inactive)

**Q.** What about the GI50 (T47D) of the same compound?
**A.** > 100 µM (inactive)

**Q.** What about the GI50 (A498) of the same compound?
**A.** > 100 µM (inactive)

**Q.** What about the GI50 (ACHN) of the same compound?
**A.** > 70.6 µM (inactive)

**Q.** And the GI50 (COLO 205)?
**A.** > 29.7 µM (inactive)

**Q.** And the GI50 (A549)?
**A.** > 100 µM (inactive)

**Q.** And the GI50 (K562)?
**A.** > 31.8 µM (inactive)

**Q.** What about the GI50 (HCC 2998) of the same compound?
**A.** > 55.3 µM (inactive)

**Q.** And the GI50 (RXF 393)?
**A.** > 56.6 µM (inactive)

**Q.** What about the GI50 (UACC-257) of the same compound?
**A.** > 56.4 µM (inactive)

**Q.** What about the GI50 (UO-31) of the same compound?
**A.** > 58.5 µM (inactive)

**Q.** And the GI50 (Malme-3M)?
**A.** 0.344 µM (active)

**Q.** And the GI50 (HCT-116)?
**A.** > 32.4 µM (inactive)

**Q.** And the GI50 (M14)?
**A.** > 100 µM (inactive)

**Q.** And the GI50 (SNB-75)?
**A.** 48 µM (inactive)

**Q.** And the GI50 (Hs-578T)?
**A.** > 41.9 µM (inactive)

**Q.** And the GI50 (NCI/ADR-RES)?
**A.** 4.81 µM (inactive)

**Q.** And the GI50 (SNB-19)?
**A.** > 69 µM (inactive)

**Q.** What about the GI50 (SF-539) of the same compound?
**A.** > 65.8 µM (inactive)

**Q.** And the GI50 (MCF7)?
**A.** > 20.2 µM (inactive)

**Q.** And the GI50 (MDA-N)?
**A.** > 29 µM (inactive)

**Q.** What about the GI50 (NCI-H460) of the same compound?
**A.** > 60.7 µM (inactive)

**Q.** What about the GI50 (HOP-92) of the same compound?
**A.** > 100 µM (inactive)

**Q.** What about the GI50 (NCI-H23) of the same compound?
**A.** > 52.8 µM (inactive)

**Q.** What about the GI50 (LOX IMVI) of the same compound?
**A.** > 32.4 µM (inactive)

**Q.** What about the GI50 (SR) of the same compound?
**A.** > 100 µM (inactive)

**Q.** And the GI50 (OVCAR-5)?
**A.** > 100 µM (inactive)

**Q.** `Cc1ccc(S(=O)(=O)NC(C(=O)O)C(C)C)cc1` (stereo not given) was tested. Which GI50 (MOLT-4) did it give?
**A.** > 100 µM (inactive)

**Q.** What about the GI50 (BT-549) of the same compound?
**A.** > 100 µM (inactive)

**Q.** And the GI50 (U-251)?
**A.** > 100 µM (inactive)

**Q.** What about the GI50 (786-0) of the same compound?
**A.** > 100 µM (inactive)

**Q.** What about the GI50 (UACC-62) of the same compound?
**A.** > 100 µM (inactive)

**Q.** And the GI50 (HCT-15)?
**A.** > 100 µM

**Q.** And the GI50 (TK-10)?
**A.** > 100 µM (inactive)

**Q.** And the GI50 (SF-295)?
**A.** > 100 µM (inactive)

**Q.** And the GI50 (IGROV-1)?
**A.** > 100 µM (inactive)

**Q.** What about the GI50 (MDA-MB-231) of the same compound?
**A.** > 100 µM (inactive)

**Q.** And the GI50 (SK-MEL-28)?
**A.** > 100 µM (inactive)

**Q.** What about the GI50 (EKVX) of the same compound?
**A.** > 100 µM (inactive)

**Q.** And the GI50 (CCRF-CEM)?
**A.** > 100 µM (inactive)

**Q.** What about the GI50 (HOP-62) of the same compound?
**A.** > 100 µM (inactive)

**Q.** And the GI50 (DU-145)?
**A.** > 100 µM (inactive)

**Q.** And the GI50 (SN12C)?
**A.** > 100 µM (inactive)

**Q.** What about the GI50 (MDA-MB-435) of the same compound?
**A.** > 100 µM (inactive)

**Q.** And the GI50 (SW-620)?
**A.** > 100 µM (inactive)

**Q.** And the GI50 (SK-MEL-2)?
**A.** > 100 µM (inactive)

**Q.** What about the GI50 (SF-268) of the same compound?
**A.** > 100 µM (inactive)

**Q.** And the GI50 (CAKI-1)?
**A.** > 100 µM (inactive)

**Q.** And the GI50 (KM12)?
**A.** > 100 µM (inactive)

**Q.** What about the GI50 (OVCAR-8) of the same compound?
**A.** > 100 µM (inactive)

**Q.** What about the GI50 (HT-29) of the same compound?
**A.** > 100 µM (inactive)

**Q.** And the GI50 (SK-MEL-5)?
**A.** > 100 µM (inactive)

**Q.** What about the GI50 (OVCAR-4) of the same compound?
**A.** > 100 µM (inactive)

**Q.** What about the GI50 (NCI-H522) of the same compound?
**A.** > 100 µM (inactive)

**Q.** What about the GI50 (NCI-H226) of the same compound?
**A.** > 100 µM (inactive)

**Q.** And the GI50 (T47D)?
**A.** > 100 µM (inactive)

**Q.** What about the GI50 (A498) of the same compound?
**A.** > 100 µM (inactive)

**Q.** What about the GI50 (ACHN) of the same compound?
**A.** > 100 µM (inactive)

**Q.** And the GI50 (A549)?
**A.** > 100 µM (inactive)

**Q.** And the GI50 (K562)?
**A.** > 100 µM (inactive)

**Q.** And the GI50 (HCC 2998)?
**A.** > 100 µM (inactive)

**Q.** And the GI50 (RXF 393)?
**A.** > 100 µM (inactive)

**Q.** What about the GI50 (UACC-257) of the same compound?
**A.** > 100 µM (inactive)

**Q.** And the GI50 (UO-31)?
**A.** > 100 µM (inactive)

**Q.** And the GI50 (Malme-3M)?
**A.** > 100 µM (inactive)

**Q.** And the GI50 (PC-3)?
**A.** > 100 µM (inactive)

**Q.** And the GI50 (HCT-116)?
**A.** > 100 µM (inactive)

**Q.** What about the GI50 (M14) of the same compound?
**A.** > 100 µM (inactive)

**Q.** What about the GI50 (SNB-75) of the same compound?
**A.** > 100 µM (inactive)

**Q.** And the GI50 (Hs-578T)?
**A.** > 100 µM (inactive)

**Q.** What about the GI50 (NCI/ADR-RES) of the same compound?
**A.** > 100 µM (inactive)

**Q.** And the GI50 (SNB-19)?
**A.** > 100 µM (inactive)

**Q.** And the GI50 (MDA-N)?
**A.** > 100 µM (inactive)

**Q.** And the GI50 (OVCAR-3)?
**A.** > 100 µM (inactive)

**Q.** What about the GI50 (NCI-H460) of the same compound?
**A.** > 100 µM (inactive)

**Q.** What about the GI50 (HOP-92) of the same compound?
**A.** > 100 µM (inactive)

**Q.** What about the GI50 (NCI-H23) of the same compound?
**A.** > 100 µM (inactive)

**Q.** What about the GI50 (LOX IMVI) of the same compound?
**A.** > 100 µM (inactive)

**Q.** And the GI50 (SR)?
**A.** > 100 µM (inactive)

**Q.** And the GI50 (OVCAR-5)?
**A.** > 100 µM (inactive)

Source: ChEMBL document CHEMBL1201862, “PubChem BioAssay data set” (2004)
